{"source": "patent US20240269145A1", "about": "“USE OF INDOLE COMPOUND AS INHIBITORS OF FERROPTOSIS” (MITOIMMUNE THERAPEUTICS INC., priority 2023, published 2024)", "system": "H9C2 cells", "assay": "Mitochondrial iron ion accumulation (Mito-FerroGreen, images) after erastin", "format": "cell-based", "conditions": "H9C2, erastin 5 μM, 5 hr; Example Compound 1 1 μM, DFO 100 μM", "experimental": "[The source words this procedure for another cell line and says it was used here with some conditions changed.] Experimental Example 9-1: To confirm the inhibitory effect against mitochondrial iron ion accumulation in lung epithelial cells and adrenal medulla cells, 3×10^5 MLE-12 cells and PC-12 cells were each dispensed into a confocal dish and cultured for 18 to 24 hours. Each well was treated with Example Compound 1 and DFO, which were diluted so that their final concentration became 1 μM and 10 μM, respectively, and culture was performed for 20 minutes. Afterwards, the MLE-12 cells were treated with RSL3 so that the final concentration became 1 μM, and cultured for 1 hour and 30 minutes, and the PC-12 cells were treated with RSL3 so that the final concentration became 0.3 μM, and cultured for 30 minutes. To confirm the inhibitory effect against mitochondrial iron ion accumulation, Mito-FerroGreen [DOJINDO; M489] was used. According to the manufacturer's experimental method, Mito-FerroGreen was diluted in the cell culture medium so that the final concentration became 1 μM, and the cells were treated therewith and allowed to react for 30 minutes to perform fluorescent staining. The cells fluorescently stained with Mito-FerroGreen were observed using a fluorescence microscope [Carl Zeiss; Axio Observer 7] to investigate the change in fluorescence (excitation/absorption 450 to 490 nm/500 to 550 nm) compared to the control group (RSL3 untreated group). […]", "data": [{"compound": "O=S1(=O)CCN(Cc2cc(NC3CCOCC3)c3[nH]c(-c4ccccc4)cc3c2)CC1", "note": "[Example 1, 5-[(1,1-dioxido-4-thiomorpholinyl)methyl]-2-phenyl-N-(tetrahydro-2H-pyran-4-yl)-1H-indole-7-amine]", "values": [{"measurement": "mitochondrial iron ion accumulation (images)", "result": "inhibited"}]}]}
